Assay results from paper PMC6375636, “Monotherapy with a low-dose lipopeptide HIV fusion inhibitor maintains long-term viral suppression in rhesus macaques” (PLoS Pathogens, 2019).
Peptide text beside a SMILES is read from it. * marks the point of attachment. Stearoyl = CCCCCCCCCCCCCCCCCC(=O)*

Key:
Assay type in all cases: cell-based
HIV-1 89.6 = conditions: Table 2; 89.6, subtype B, R5X4; mean ± SD of 3 assays in triplicate
Method in brief: (§1)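 Inhibition was scored by luciferase after 48 h infection of TZM-bl cells at 37°C, using 100 TCID50 of HEK293T-produced virus preincubated 1 h at room temperature with threefold-diluted compound.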

HIV-1 CH040.c/2625 = conditions: Table 2; CH040.c/2625, subtype B, R5; mean ± SD of 3 assays in triplicate
Method in brief: as §1

HIV-1 NL4-3 = conditions: Table 2; NL4-3, subtype B, X4; mean ± SD of 3 assays in triplicate
Method in brief: as §1

HIV-1 R3A = conditions: Table 2, subtype B, R5X4, mean ± SD of 3 assays in triplicate
Method in brief: as §1

HIV-1 RHPA.c/2635 = conditions: Table 2; RHPA.c/2635, subtype B, R5; mean ± SD of 3 assays in triplicate
Method in brief: as §1

HIV-1 SG3 = conditions: Table 2; SG3, subtype B, X4; mean ± SD of 3 assays in triplicate
Method in brief: as §1

[1] = tested on: HIV-1 pseudovirus, primary Env 246_F3_C10_2; conditions: Env 246_F3_C10_2, subtype A/C; mean ± SD of 3 assays in triplicate
Method in brief: as §1

[2] = tested on: HIV-1 pseudovirus, primary Env 398-F1_F6_20; conditions: Env 398-F1_F6_20, subtype A; mean ± SD of 3 assays in triplicate
Method in brief: as §1

[3] = tested on: HIV-1 pseudovirus, primary Env AE03; conditions: Env AE03, subtype A/E; mean ± SD of 3 assays in triplicate
Method in brief: as §1

[4] = tested on: HIV-1 pseudovirus, primary Env B01; conditions: Env B01, subtype B'; mean ± SD of 3 assays in triplicate
Method in brief: as §1

[5] = tested on: HIV-1 pseudovirus, primary Env B04; conditions: Env B04, subtype B'; mean ± SD of 3 assays in triplicate
Method in brief: as §1

[6] = tested on: HIV-1 pseudovirus, primary Env BJOX002000.03.2; conditions: Env BJOX002000.03.2, subtype B/C; mean ± SD of 3 assays in triplicate
Method in brief: as §1

[7] = tested on: HIV-1 pseudovirus, primary Env CAP45.2.00.G3; conditions: Env CAP45.2.00.G3, subtype C; mean ± SD of 3 assays in triplicate
Method in brief: as §1

[8] = tested on: HIV-1 pseudovirus, primary Env CE703010217_B6; conditions: Env CE703010217_B6, subtype C; mean ± SD of 3 assays in triplicate
Method in brief: as §1

[9] = tested on: HIV-1 pseudovirus, primary Env CH070.1; conditions: Env CH070.1, subtype B/C; mean ± SD of 3 assays in triplicate
Method in brief: as §1

[10] = tested on: HIV-1 pseudovirus, primary Env CH120.6; conditions: Env CH120.6, subtype B/C; mean ± SD of 3 assays in triplicate
Method in brief: as §1

[11] = tested on: HIV-1 pseudovirus, primary Env CH64.20; conditions: Env CH64.20, subtype B/C; mean ± SD of 3 assays in triplicate
Method in brief: as §1

[12] = tested on: HIV-1 pseudovirus, primary Env Du156; conditions: Env Du156, subtype C; mean ± SD of 3 assays in triplicate
Method in brief: as §1

[13] = tested on: HIV-1 pseudovirus, primary Env HIV_25710–2.43; conditions: Env HIV_25710–2.43, subtype C; mean ± SD of 3 assays in triplicate
Method in brief: as §1

[14] = tested on: HIV-1 pseudovirus, primary Env PVO; conditions: subtype B, mean ± SD of 3 assays in triplicate
Method in brief: as §1

[15] = tested on: HIV-1 pseudovirus, primary Env R3A; conditions: subtype B, mean ± SD of 3 assays in triplicate
Method in brief: as §1

[16] = tested on: HIV-1 pseudovirus, primary Env SC422661.8; conditions: Env SC422661.8, subtype B; mean ± SD of 3 assays in triplicate
Method in brief: as §1

[17] = tested on: HIV-1 pseudovirus, primary Env SF162; conditions: Env SF162, subtype B; mean ± SD of 3 assays in triplicate
Method in brief: as §1

[18] = tested on: HIV-1 pseudovirus, primary Env X1632-S2-B10; conditions: Env X1632-S2-B10, subtype G; mean ± SD of 3 assays in triplicate
Method in brief: as §1

[19] = tested on: HIV-1 pseudovirus, primary Env pREJO4541; conditions: Env pREJO4541, subtype B; mean ± SD of 3 assays in triplicate
Method in brief: as §1

[20] = tested on: replication-competent HIV-1 isolates; conditions: mean of the ten isolates of Table 2; read-out: Mean IC50 over the replication-competent isolates
Method in brief: as §1

[21] = tested on: HIV-1 pseudovirus, primary Env X2278_C2_B6; conditions: Env X2278_C2_B6, subtype B; mean ± SD of 3 assays in triplicate
Method in brief: as §1

Compound	IC50 (HIV-1 89.6)	IC50 (HIV-1 CH040.c/2625)	IC50 (HIV-1 R3A)	IC50 (HIV-1 RHPA.c/2635)	IC50 (HIV-1 SG3)	IC50 [1]	IC50 [2]	IC50 [3]	IC50 [4]	IC50 [5]	IC50 [7]	IC50 [8]	IC50 [9]	IC50 [10]	IC50 [11]	IC50 [12]	IC50 [13]	IC50 [14]	IC50 [16]	IC50 [17]	further results
CCCCCCCCCCCCCCCCCC(=O)NCCCC[C@H](NC(=O)[C@H](CCC(=O)O)NC(=O)[C@H](CC(C)C)NC(=O)[C@H](CCCCN)NC(=O)[C@H](CCCCN)NC(=O)[C@H](CC(C)C)NC(=O)[C@H](CCC(=O)O)NC(=O)[C@H](CCC(=O)O)NC(=O)[C@H](CCC(=O)O)NC(=O)[C@H](CC(N)=O)NC(=O)[C@H](CCCCN)NC(=O)[C@H](CCCCN)NC(=O)[C@H](CCC(N)=O)NC(=O)[C@H](CCC(N)=O)NC(=O)[C@H](CCC(=O)O)NC(=O)[C@H](CCC(=O)O)NC(=O)[C@H](C)NC(=O)[C@H](CCCCN)NC(=O)[C@H](CCCCN)NC(=O)[C@H](CC(C)C)NC(=O)[C@H](CC(C)C)NC(=O)[C@H](CCC(=O)O)NC(=O)[C@H](CCC(=O)O)NC(=O)[C@@H](NC(=O)[C@H](CCCCN)NC(=O)[C@H](CCC(N)=O)NC(=O)[C@H](CCC(=O)O)NC(=O)[C@H](Cc1c[nH]c2ccccc12)NC(C)=O)[C@@H](C)CC)C(N)=O [LP-80] (Ac-WEQKIEELLKKAEEQQKKNEEELKKLEK(Stearoyl)-NH2)	0.00527 ± 0.0003 nM	0.0227 ± 0.00555 nM	5.67 ± 0.85 pM	4.81 ± 1.98 pM	1.8 ± 0.42 pM	4.05 ± 0.47 pM	1.49 ± 0.26 pM	0.00344 ± 0.00083 nM	0.00349 ± 0.0004 nM	0.00381 ± 0.00108 nM	1.69 ± 0.48 pM	0.00572 ± 0.00132 nM	0.0285 ± 0.00063 nM	0.0106 ± 0.00102 nM	5.75 ± 0.19 pM	1.1 ± 0.35 pM	0.0032 ± 0.00068 nM	0.013 ± 0.00167 nM	0.00255 ± 0.00077 nM	3.12 ± 0.37 pM	IC50 (HIV-1 NL4-3): 0.00245 ± 0.00051 nM; IC50 [6]: 0.00848 ± 8e-05 nM; IC50 [15]: 0.00634 ± 0.00065 nM; IC50 [18]: 0.00556 ± 0.00076 nM; IC50 [19]: 0.0014 ± 0.00061 nM; IC50 [20]: 0.00709 nM
CCCCCCCCCCCCCCCCCC(=O)NCCCC[C@H](NC(=O)[C@H](CCC(=O)O)NC(=O)[C@H](CC(C)C)NC(=O)[C@H](CCCCN)NC(=O)[C@H](CCCCN)NC(=O)[C@H](CC(C)C)NC(=O)[C@H](CCC(=O)O)NC(=O)[C@H](CCC(=O)O)NC(=O)[C@H](CCC(=O)O)NC(=O)[C@H](CC(N)=O)NC(=O)[C@H](CCCCN)NC(=O)[C@H](CCCCN)NC(=O)[C@H](CCC(N)=O)NC(=O)[C@H](CCC(N)=O)NC(=O)[C@H](CCC(=O)O)NC(=O)[C@H](CCC(=O)O)NC(=O)[C@H](C)NC(=O)[C@H](CCCCN)NC(=O)[C@H](CCCCN)NC(=O)[C@H](CC(C)C)NC(=O)[C@H](CC(C)C)NC(=O)[C@H](CCC(=O)O)NC(=O)[C@H](CCC(=O)O)NC(=O)[C@@H](NC(C)=O)[C@@H](C)CC)C(N)=O [LP-90] (Ac-IEELLKKAEEQQKKNEEELKKLEK(Stearoyl)-NH2)	0.0574 ± 0.0109 nM	0.0502 ± 0.0138 nM	9.32 ± 1.21 pM	5.36 ± 1.66 pM	1.67 ± 0.61 pM	6.84 ± 0.47 pM	6.32 ± 0.46 pM	0.0141 ± 0.00417 nM	0.018 ± 0.00158 nM	0.0175 ± 0.00772 nM	2.14 ± 0.13 pM	0.0112 ± 0.00083 nM	0.0317 ± 0.00204 nM	0.0254 ± 0.00162 nM	7.72 ± 2.67 pM	3.63 ± 0.67 pM	0.016 ± 0.00293 nM	0.0226 ± 0.0047 nM	0.0385 ± 0.00705 nM	4.82 ± 0.91 pM	IC50 (HIV-1 NL4-3): 0.0768 ± 0.019 nM; IC50 [18]: 0.0284 ± 0.00411 nM; IC50 [21]: 0.00104 ± 0.00022 nM; IC50 [19]: 0.0159 ± 0.00313 nM; IC50 [20]: 0.0237 nM
enfuvirtide [Lipopeptide T-20, reference compound]	15.4 ± 5.88 nM	30.9 ± 3.81 nM	6730 ± 1080 pM	6520 ± 1330 pM	2850 ± 227 pM	36200 ± 3700 pM	19400 ± 1710 pM	12.38 ± 0.109 nM	84.4 ± 3.69 nM	5.65 ± 0.366 nM	13600 ± 2040 pM	41.8 ± 2.22 nM	165 ± 28.3 nM	48.1 ± 4.92 nM	33300 ± 1180 pM	15700 ± 1580 pM	13.7 ± 1.85 nM	69.7 ± 0.698 nM	16.1 ± 2.24 nM	17600 ± 1030 pM	IC50 [6]: 26.3 ± 2.77 nM; IC50 [15]: 6.88 ± 1.12 nM; IC50 [18]: 15.6 ± 2.01 nM; IC50 [21]: 5.66 ± 0.0744 nM; IC50 [19]: 55 ± 2.9 nM; IC50 [20]: 15.3 nM
